One data set has as its target T1, CYP2C9 (Homo sapiens, UniProt P11712).
T1 construct: purchased Promega Corporation (Madison, WI)
Kind of data set: P450-Glo CYP450 inhibition, CYP2C9. The conditions noted are these: highest concentration 62.6 μM. The format is in vitro ADME. As to the method:
(§1) In Vitro Druggability Assays-CYP450 Binding, hERG & Nephelometry. The P450-Glo™ Screening System from Promega Corporation (Madison, WI) was used to measure CYP450 (cytochrome P450) inhibition, as described in the kit instructions. Assays were run in 96-well white plates (Corning® 3912), and luminescence was measured on a SpectraMax M5 instrument (FIG. 6). The luminescence signal is proportional to the amount of luciferin product formed by the CYP reaction. Compounds were prepared in DMSO, then an eight-step 1:2 dilution series was made in DMSO. […] After adding the relevant Cytochrome P450 enzyme, the plate was incubated at 37° C. for 10 minutes to allow components to come to temperature. Next, the NADPH regeneration system was added to activate the reaction on a luminogenic P450-GloTM substrate, and incubated at 37° C. for 10-30 min, according to kit instructions for each CYP enzyme. The enzyme reaction was stopped by the addition of Luciferin Detection Reagent and luminescence of the plate was read in a Spectramax M5 (Molecular Devices) after a 20 min incubation at room temperature. Data were normalized to positive controls (α-naphthoflavone for CYP1A2, sulfaphenazole for CYP2C9, quinidine for CYP2D6, and ketoconazole for CYP3A4). Data analysis was with Prism software, as described above.

The next data set has as its target T2, ERα (Homo sapiens, UniProt P03372).
T2 construct: employs a full length and native ER (comprised of an ER LBD and an ER DBD)
T2 sequence (P03372 1-595): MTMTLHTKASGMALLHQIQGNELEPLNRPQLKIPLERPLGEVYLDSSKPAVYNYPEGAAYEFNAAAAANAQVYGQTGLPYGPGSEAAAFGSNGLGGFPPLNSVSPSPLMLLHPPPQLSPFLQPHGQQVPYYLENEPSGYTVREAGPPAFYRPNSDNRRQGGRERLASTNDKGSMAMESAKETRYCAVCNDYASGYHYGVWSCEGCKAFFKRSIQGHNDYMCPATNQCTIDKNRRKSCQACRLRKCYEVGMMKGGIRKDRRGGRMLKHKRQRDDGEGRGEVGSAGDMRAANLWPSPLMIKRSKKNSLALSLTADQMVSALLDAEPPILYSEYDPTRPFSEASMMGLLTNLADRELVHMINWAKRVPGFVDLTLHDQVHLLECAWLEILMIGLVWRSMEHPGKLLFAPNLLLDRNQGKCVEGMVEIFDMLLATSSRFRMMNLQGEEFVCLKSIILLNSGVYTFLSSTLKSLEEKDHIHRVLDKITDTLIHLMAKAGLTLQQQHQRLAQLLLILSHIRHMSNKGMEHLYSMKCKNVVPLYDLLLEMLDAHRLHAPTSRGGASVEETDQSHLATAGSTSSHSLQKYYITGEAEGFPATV
The experiment in a line: Cell-based luciferase reporter assay, full length ERα, antagonist mode. For orientation: A reporter such as luciferase makes a cellular process visible.

For data set [1], the system named is ovariectomized mice. The experiment in a line: Bloodwork chemistry and hematology panel. Type of data set: in vivo. Conditions: single IP injection, 0.5 or 5 mg/kg. As to the method:
FIG. 14. Bloodwork panel for tissue pathology analysis for ISP358-2. Bloodwork hematology analysis was performed by Animal Reference Pathology, LLC in Salt Lake City, Utah (animalreferencepathology.com). Reference ranges are from Charles River Laboratories for CrL: Wi (Han) female 8-16 weck old rats. Blood samples were taken via cardiac puncture at the same time point and treatment conditions as in FIGS. 13A-13M. […] In some cases hemolysis occurred, likely due to the blood collection procedure, which precluded analysis for those samples, thus, samples sizes in the analysis were 6-8. The mean and standard error of the mean of cach group is listed in the table, along with outcomes from one-way ANOVA statistical analysis. […] The hematology samples were analyzed by a Sysmex XT-2000iV using veterinary software and the rat species setting.^3 The reagents for individual assays were sourced from either Seimens, RandOx or Sekisui.

Data set [2] has as its system ovariectomized mice. Kind of data set: Object recognition memory consolidation test.
The target in data set [3] is T3, Progesterone Receptor (PR) (Homo sapiens, UniProt P06401).
T3 sequence (P06401 679-913 limits assumed): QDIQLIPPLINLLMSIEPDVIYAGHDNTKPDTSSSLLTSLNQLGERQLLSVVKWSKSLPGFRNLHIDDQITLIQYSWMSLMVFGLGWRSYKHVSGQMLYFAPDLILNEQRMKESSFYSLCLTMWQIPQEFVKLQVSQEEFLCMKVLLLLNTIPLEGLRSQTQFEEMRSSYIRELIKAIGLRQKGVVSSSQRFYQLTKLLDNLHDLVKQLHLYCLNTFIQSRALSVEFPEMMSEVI
Kind of data set: GeneBLAzer nuclear hormone receptor specificity assay, PR. The format is cell-based. Conditions: 0.25 to 25 μM; listed as ISP358-2. The method, then:
Nuclear Hormone Receptor Specificity Assay. Selectivity measurements were performed using the SelectScreen™ cell-based nuclear receptor profiling service from ThermoFisher (FIG. 3A). This is a FRET-based assay that uses GeneBLAzer™ technology. It detects ligand binding to and activation of a nuclear hormone receptor of interest (ligand binding domain; LBD) that is fused to a GAL4 DNA binding domain (DBD), which upon activation induces expression of beta-lactamase. The assay has a Z′≥0.5 in agonist mode. […]

The target of the next data set is T4, CYP1A2 (Homo sapiens, UniProt P05177).
T4 construct: purchased Promega Corporation (Madison, WI)
T4 sequence (P05177 1-516): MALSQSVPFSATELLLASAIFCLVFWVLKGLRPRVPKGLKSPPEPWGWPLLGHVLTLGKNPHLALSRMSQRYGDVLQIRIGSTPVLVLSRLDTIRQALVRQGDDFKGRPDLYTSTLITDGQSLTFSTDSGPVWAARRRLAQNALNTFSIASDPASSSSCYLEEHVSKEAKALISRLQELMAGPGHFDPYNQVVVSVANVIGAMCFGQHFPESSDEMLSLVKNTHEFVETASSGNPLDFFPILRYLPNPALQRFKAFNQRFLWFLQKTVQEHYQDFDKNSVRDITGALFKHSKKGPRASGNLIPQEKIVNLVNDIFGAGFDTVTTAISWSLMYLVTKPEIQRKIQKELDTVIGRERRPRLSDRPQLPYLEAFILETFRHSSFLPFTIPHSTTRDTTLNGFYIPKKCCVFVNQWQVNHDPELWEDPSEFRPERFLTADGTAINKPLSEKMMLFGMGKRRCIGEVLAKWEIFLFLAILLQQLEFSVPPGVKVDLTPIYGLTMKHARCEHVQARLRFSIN
The experiment in a line: P450-Glo CYP450 inhibition, CYP1A2. The format is in vitro ADME. The conditions noted are these: highest concentration 62.6 μM; listed as ISP358-2. As to the method: as §1

“Also recorded” adds a separate entry of the source.

Consider one molecule from patent US20240327421A1 (Marquette University, priority 2017, published 2024).

T1 sequence (P11712 whole entry): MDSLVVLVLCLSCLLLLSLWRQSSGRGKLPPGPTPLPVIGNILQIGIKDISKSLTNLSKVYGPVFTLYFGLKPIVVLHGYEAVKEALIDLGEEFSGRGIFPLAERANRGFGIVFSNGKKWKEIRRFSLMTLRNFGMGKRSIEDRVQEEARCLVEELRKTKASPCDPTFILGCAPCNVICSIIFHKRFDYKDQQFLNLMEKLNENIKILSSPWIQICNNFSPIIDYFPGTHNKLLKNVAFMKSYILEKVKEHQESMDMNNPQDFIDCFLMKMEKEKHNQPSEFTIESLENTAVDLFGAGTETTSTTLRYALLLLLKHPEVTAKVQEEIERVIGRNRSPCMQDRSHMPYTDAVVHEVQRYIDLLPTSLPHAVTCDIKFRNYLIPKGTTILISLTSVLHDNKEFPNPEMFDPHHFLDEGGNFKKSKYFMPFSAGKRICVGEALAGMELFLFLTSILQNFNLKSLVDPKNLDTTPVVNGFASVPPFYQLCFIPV

One may read the IC50 as the point on the concentration scale where inhibition reaches its midpoint. For `OC[C@H]1CC[C@H](c2ccc(O)cc2)CC1` [Compound 16], the CYP2C9 inhibition result at CYP2C9 is recorded as “no significant inhibition”. In addition, the IC50 is 34 ± 4.7 µM against CYP2C9 and more than 10 µM at ERα (inhibition of estradiol-induced transcription, read-out: ERα antagon. IC50). The ERα antagonist activity entry on ERα (concentrations up to 10 μM, listed as ISP358-2) is listed as “No measurable antagonist activity”. Also, the “bloodwork chemistry and hematology vs reference ranges” value in the data set on ovariectomized mice [1] is listed as “do not show significant deviations from expected reference ranges”. Further, the “object recognition: time with novel object / memory consolidation” value is given as “exhibited a significant preference for the novel object relative to chance; also recorded: most effectively enhanced consolidation; also recorded: enhanced memory consolidation” in the data set with ovariectomized mice [2] (IP injection, 0.5 mg/kg, listed as ISP358-2, 0.5 mg/kg); “somewhat of a trend for the 5 mg/kg ISP358-2 to prefer the novel object” with ovariectomized mice [2] (IP injection, 5 mg/kg); “Neither the vehicle nor 10 pg ISP358-2 groups showed a preference for the novel object” with ovariectomized mice [2] (dorsal hippocampal infusion, 10 pg/hemisphere, tested 48 h after training, chance 15 s); “spent significantly more time than chance with the novel object; also recorded: enhanced memory consolidation; also recorded: significantly increased time was spent” with ovariectomized mice [2] (dorsal hippocampal infusion, 100 pg/hemisphere, tested 48 h after training, listed as ISP358-2); “spent significantly more time than chance with the novel object; also recorded: enhanced memory consolidation; also recorded: significantly increased time was spent” in the data set on ovariectomized mice [2] (dorsal hippocampal infusion, 1 ng/hemisphere, tested 48 h after training, listed as ISP358-2); “spent significantly more time with the novel object relative to chance; also recorded: enhanced memory consolidation” in the data set on ovariectomized mice [2] (oral gavage, 0.5 mg/kg, listed as ISP358-2, 0.5 mg/kg). The “object recognition: time with novel object / memory consolidation” value with ovariectomized mice [2] (oral gavage, 5 mg/kg, listed as ISP358-2, 5 mg/kg) is “spent significantly more time with the novel object relative to chance; also recorded: most effective; also recorded: enhanced memory consolidation”. Further, the “agonist activity, PR” value in data set [3] is reported as “not an agonist; also recorded: no significant off-target activity”. The CYP1A2 inhibition result on CYP1A2 was “no significant inhibition”.
